ChEMBL document CHEMBL1201862, “PubChem BioAssay data set” (2004)
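Where inhibition never reached the appropriate level, the endpoint shown equals the highest concentration tested. Otherwise, values were interpolated linearly from a five-concentration, 48-hour dose response in 96-well plates. Abbreviation: GI50, concentration required for 50% inhibition of growth.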 The source made the active and inactive calls. Rule as the data show it: active = GI50 up to about 1.1 µM and inactive = higher.

Columns and labels:
Experiment in all cases: NCI anticancer screen, dose series, 48 h
SK-MEL-28 = tested on: SK-MEL-28
OVCAR-5 = tested on: OVCAR-5
HT-29 = tested on: HT-29
KM12 = tested on: KM12
HOP-92 = tested on: HOP-92
RXF 393 = tested on: RXF 393
HOP-62 = tested on: HOP-62
SW-620 = tested on: SW-620
HCT-116 = tested on: HCT-116
SF-268 = tested on: SF-268
Malme-3M = tested on: Malme-3M
SN12C = tested on: SN12C
NCI-H522 = tested on: NCI-H522
HCC 2998 = tested on: HCC 2998
MOLT-4 = tested on: MOLT-4
HL-60 = tested on: HL-60

Measured: GI50

CCS[C@H]1NC(=O)C1[C@H](C)O[Si](C)(C)C(C)(C)C (some centres undefined)
inactive: SK-MEL-28 > 100 µM | OVCAR-5 75.5 µM | HT-29 > 100 µM | KM12 > 100 µM | HOP-92 79.8 µM | RXF 393 52.8 µM | HOP-62 > 100 µM | SW-620 > 100 µM | HCT-116 86.1 µM | SF-268 > 100 µM | Malme-3M > 100 µM | SN12C > 100 µM

NC1CCCCC1.O=P(O)(O)C1(P(=O)(O)O)CC1
inactive: NCI-H522 > 100 µM | SK-MEL-28 > 100 µM | OVCAR-5 > 100 µM | HT-29 > 100 µM | KM12 > 100 µM | HCC 2998 > 100 µM | MOLT-4 > 100 µM | RXF 393 > 100 µM | HOP-62 > 100 µM | SW-620 > 100 µM | HCT-116 > 100 µM | SF-268 > 100 µM | Malme-3M > 100 µM | SN12C > 100 µM

COc1ccc(/C=C/C(=O)C(C)C)cc1
inactive: HL-60 22.9 µM | NCI-H522 20.6 µM | SK-MEL-28 > 100 µM | OVCAR-5 > 100 µM | HT-29 29 µM | KM12 33.6 µM | HOP-92 54.8 µM | HCC 2998 > 100 µM | MOLT-4 33.2 µM | HOP-62 43.8 µM | SW-620 33 µM | HCT-116 49.8 µM | SF-268 42.3 µM | Malme-3M 42 µM | SN12C 54.3 µM

O=C(CCCCCCCCCCc1ccccc1)C1=C(O)CC(O)CC1=O (centres undefined)
inactive: HL-60 20.7 µM | NCI-H522 33.4 µM | SK-MEL-28 72.4 µM | OVCAR-5 39.5 µM | HT-29 47.6 µM | KM12 38.4 µM | HOP-92 33.3 µM | HCC 2998 34.9 µM | MOLT-4 40.5 µM | RXF 393 > 100 µM | HOP-62 > 100 µM | SW-620 76.9 µM | HCT-116 43.3 µM | SF-268 > 100 µM | SN12C 96.2 µM

CC(=O)CC(=O)/C=C/c1cccs1
inactive: HL-60 27.9 µM | NCI-H522 42.3 µM | OVCAR-5 > 100 µM | HT-29 58.9 µM | KM12 55.2 µM | MOLT-4 > 100 µM | HOP-62 > 100 µM | SW-620 70.1 µM | HCT-116 40.7 µM | SF-268 45 µM | Malme-3M 58.2 µM | SN12C 63 µM

CC(=O)NC1=C(C)C(=O)c2c(nc3n2CCC3O)C1=N (centres undefined)
inactive: HL-60 4.49 µM | NCI-H522 6.75 µM | SK-MEL-28 17.2 µM | OVCAR-5 21.6 µM | HT-29 17.6 µM | KM12 18.5 µM | HOP-92 4.36 µM | HCC 2998 21.3 µM | MOLT-4 1.95 µM | HOP-62 38.8 µM | SW-620 13.3 µM | HCT-116 2.39 µM | SF-268 10.3 µM | Malme-3M 6.41 µM | SN12C 6.19 µM

CCOc1cccc2c1N[S@@](=O)S2
inactive: HL-60 > 100 µM | NCI-H522 55.5 µM | SK-MEL-28 > 100 µM | HT-29 > 100 µM | KM12 > 100 µM | HOP-92 > 100 µM | MOLT-4 55.3 µM | SW-620 > 100 µM | HCT-116 > 100 µM | SF-268 > 100 µM | Malme-3M > 100 µM | SN12C > 100 µM

CN[C@@H](C)[C@H](N)c1ccccc1
inactive: NCI-H522 > 100 µM | SK-MEL-28 > 100 µM | HT-29 > 100 µM | KM12 > 100 µM | HOP-92 > 100 µM | HCC 2998 > 100 µM | MOLT-4 > 100 µM | RXF 393 > 100 µM | SW-620 > 100 µM | HCT-116 > 100 µM | SN12C > 100 µM

CC(=O)NC(CCCCN(Cc1ccccc1)C(=O)NCCCl)C(=O)NCc1ccccc1 (centres undefined)
inactive: HL-60 > 100 µM | NCI-H522 > 100 µM | SK-MEL-28 > 100 µM | HT-29 > 100 µM | KM12 > 100 µM | HOP-92 > 100 µM | HCC 2998 > 100 µM | MOLT-4 > 100 µM | HOP-62 > 100 µM | SW-620 > 100 µM | HCT-116 > 100 µM | SF-268 > 100 µM | Malme-3M > 100 µM | SN12C > 100 µM

ClC1c2ccccc2C2(c3ccccc3)OOC1(c1ccccc1)O2 (centres undefined)
inactive: SK-MEL-28 1.95 µM | OVCAR-5 4.24 µM | HT-29 2 µM | KM12 1.77 µM | HCC 2998 2.34 µM | MOLT-4 1.26 µM | RXF 393 1.4 µM | HOP-62 10.3 µM | SW-620 1.39 µM | SF-268 1.97 µM | Malme-3M 2.63 µM | SN12C 1.48 µM
active: HL-60 0.136 µM | NCI-H522 0.243 µM | HOP-92 0.39 µM

O=c1[nH]c(=O)n(C2OC3COC2C3O)cc1F (centres undefined)
inactive: HL-60 > 100 µM | NCI-H522 > 100 µM | SK-MEL-28 > 100 µM | OVCAR-5 > 100 µM | HT-29 > 100 µM | KM12 > 100 µM | HOP-92 29.8 µM | HCC 2998 > 100 µM | MOLT-4 > 100 µM | RXF 393 > 100 µM | HOP-62 > 100 µM | SW-620 > 100 µM | SF-268 > 100 µM | Malme-3M > 100 µM | SN12C > 100 µM

Cc1c2cc[n+](COC(=O)c3ccccc3)cc2c(C)c2c1[nH]c1ccccc12
inactive: SK-MEL-28 1.64 µM | HOP-62 1.31 µM | Malme-3M 1.46 µM
active: HL-60 1.1 µM | NCI-H522 1.08 µM | OVCAR-5 0.824 µM | HT-29 0.453 µM | KM12 0.533 µM | HOP-92 0.682 µM | MOLT-4 0.255 µM | SW-620 0.383 µM | HCT-116 0.298 µM | SF-268 0.571 µM | SN12C 0.533 µM

CCCCCCCCCC(=O)OCC1OC(n2cc(F)c(=O)[nH]c2=O)C(N)C(OC(=O)CCCCCCCCC)C1O (centres undefined)
inactive: HL-60 23.3 µM | NCI-H522 14.6 µM | SK-MEL-28 16.7 µM | HT-29 17.5 µM | KM12 19.1 µM | HOP-92 20.6 µM | HCC 2998 15.5 µM | MOLT-4 14.1 µM | RXF 393 15.9 µM | HOP-62 37.2 µM | SW-620 17.4 µM | HCT-116 18.2 µM | SF-268 20.2 µM | Malme-3M 16.9 µM | SN12C 16.9 µM

COC(=O)CC1N/C(=N\C#N)N(CCc2c[nH]c3ccccc23)C1=O (centres undefined)
inactive: HL-60 > 100 µM | SK-MEL-28 > 100 µM | OVCAR-5 > 100 µM | HT-29 > 100 µM | KM12 > 100 µM | HCC 2998 34.5 µM | MOLT-4 > 100 µM | RXF 393 > 100 µM | HOP-62 > 100 µM | SW-620 > 100 µM | HCT-116 > 100 µM | SF-268 > 100 µM | SN12C > 100 µM

O=C(CC1(O)C(=O)Nc2ccccc21)c1ccc(O)cc1O (centres undefined)
inactive: HL-60 > 100 µM | NCI-H522 > 100 µM | SK-MEL-28 > 100 µM | OVCAR-5 > 100 µM | HT-29 > 100 µM | HOP-92 > 100 µM | MOLT-4 > 100 µM | RXF 393 > 100 µM | HOP-62 > 100 µM | SW-620 > 100 µM | HCT-116 > 100 µM | SF-268 > 100 µM | Malme-3M > 100 µM | SN12C > 100 µM

CCN(CC)C(=O)Cc1[nH][nH]c(=O)c1C(=O)N(CC)CC
inactive: HL-60 > 100 µM | NCI-H522 > 100 µM | SK-MEL-28 > 100 µM | HT-29 > 100 µM | KM12 > 100 µM | HOP-92 > 100 µM | HCC 2998 > 100 µM | MOLT-4 > 100 µM | RXF 393 > 100 µM | HOP-62 > 100 µM | SW-620 > 100 µM | HCT-116 > 100 µM | SF-268 > 100 µM | Malme-3M > 100 µM | SN12C > 100 µM

O=c1cc(-c2ccccc2)[nH]c2cc(F)cc(F)c12
inactive: HL-60 21.8 µM | NCI-H522 11.9 µM | SK-MEL-28 27.2 µM | OVCAR-5 43.5 µM | HT-29 36.6 µM | KM12 4.56 µM | HOP-92 41.6 µM | MOLT-4 75.5 µM | RXF 393 29.2 µM | HOP-62 26.5 µM | SW-620 14.4 µM | HCT-116 36.2 µM | SF-268 > 100 µM | Malme-3M 16.7 µM | SN12C 52.5 µM

O=C(Nc1cccc(Cl)c1)C(=O)C(C(=O)c1ccc2ccccc2c1)C1OC(=O)c2ccccc21 (centres undefined)
inactive: HL-60 9.16 µM | NCI-H522 > 10 µM | SK-MEL-28 9.62 µM | OVCAR-5 24.8 µM | HT-29 31.9 µM | KM12 22.6 µM | HOP-92 20.6 µM | HCC 2998 10.2 µM | MOLT-4 3.99 µM | HOP-62 16.8 µM | SW-620 18.9 µM | HCT-116 12.6 µM | SF-268 7.29 µM | Malme-3M 13.1 µM | SN12C 18.6 µM

CN(C)CCNC(=O)c1cccc2nc3ccc4cccnc4c3nc12
active: HL-60 0.348 µM | SK-MEL-28 0.944 µM | OVCAR-5 0.916 µM | HT-29 0.208 µM | KM12 0.564 µM | HOP-92 0.351 µM | HCC 2998 0.635 µM | MOLT-4 0.0441 µM | RXF 393 0.167 µM | HOP-62 0.393 µM | SW-620 0.0675 µM | HCT-116 0.0467 µM | SF-268 0.298 µM | SN12C 0.172 µM

CCO/C([O-])=C(/C=O)[n+]1c(C)n(C)c2ccccc21
inactive: HL-60 > 100 µM | NCI-H522 > 100 µM | SK-MEL-28 > 100 µM | OVCAR-5 > 100 µM | HT-29 > 100 µM | KM12 > 100 µM | HCC 2998 > 100 µM | MOLT-4 > 100 µM | RXF 393 > 100 µM | HOP-62 > 100 µM | SW-620 > 100 µM | HCT-116 > 100 µM | SF-268 > 100 µM | Malme-3M > 100 µM
